Test results taken from patent US20230149282A1, “High-Potency Vitamin C Chemical Peeling Solutions” (Baek Clinical Inc., priority 2020, published 2023).

What was measured:
[1] = use of 4% HQ or 5% Vitamin C; cited from earlier work
[2] = Solubility of optional additional components in polyol solvents; assay type: physicochemical
Description: Additional ingredients were chosen for their compatibility with (e.g., miscibility in) 1,3 propanediol, 1,2 propanediol, and/or 1,3 butanediol.

[3] = Solubilization of ascorbic acid with urea as co-solvent (recrystallization); assay type: physicochemical; conditions: in 1,3 propanediol
Description: Maximum saturation level experiments
Next, concentrations of ascorbic acid beyond the aforementioned maximum concentration are solubilized, using urea as a co-solvent.

[4] = Comparative studies: solubilization of prior-art ascorbic acid compositions; assay type: physicochemical; conditions: ascorbic acid together with urea in propylene glycol, butylene glycol and propanediol
Procedure: This example was reproduced.
All mixtures were heated to 85° C.

[5] = cream containing 10% MAP; cited from earlier work
[6] = concentrations of 0.2%; cited from earlier work

Molecule: O=C1O[C@H]([C@@H](O)CO)C(O)=C1O [AA, L-ascorbic acid]
- improvement [1]: 62.5%

Molecule: COc1cc(CC(C(C)=O)C(C)=O)ccc1O [Acetyl zingerone]
- solubility ([2]; at 0.5-1% in 1,3 propanediol, 1,2 propanediol and 1,3 butanediol): readily soluble

Molecule: NC(N)=O [U, urea]
- minimum amount U required to solubilize 20% AA [3]: ~10%
- solubility of U (saturation reached before recrystallization of U) [3]: ~ 27.8%
- maximum concentrations soluble before urea itself starts to precipitate [4]: 20%

Molecule: O=C(O)CCCCCCCC(=O)O [AzA, Azelaic acid]
- concentration of AzA that can be solubilized ([2]; in 1,3 propanediol): up to 10%
- effect of hydroxyethyl urea on solubility of AzA ([2]; in 1,3 propanediol): slightly increased
- AzA solubilized together with ascorbic acid and urea ([2]; with 10% Ascorbic Acid (AA), 5% Urea in 1,3 propanediol solvent base): 7.5%

Molecule: O=C1O[C@H]([C@@H](O)CO)C([O-])=C1OP(=O)([O-])[O-].O=C1O[C@H]([C@@H](O)CO)C([O-])=C1OP(=O)([O-])[O-].[Mg+2].[Mg+2].[Mg+2] [MAP, magnesium ascorbyl phosphate]
- brightening/lightening of the appearance of the skin [5]: effectively brighten/lighten the appearance of the skin

Molecule: Madecassoside
- solubility ([2]; at 0.2% in 1,3 propanediol, 1,2 propanediol and 1,3 butanediol): soluble
- reduction of erythema (skin redness) [6]: desirable ability to reduce erythema

Molecule: Oc1ccc(O)cc1 [HQ, hydroquinone]
- improvement [1]: 93%
- side-effects [1]: 68.7%

Molecule: CC1(C)[C@@H](O[C@H]2O[C@H](C(=O)O)[C@@H](O)[C@H](O)[C@H]2O[C@@H]2O[C@H](C(=O)O)[C@@H](O)[C@H](O)[C@H]2O)CC[C@]2(C)[C@H]3C(=O)C=C4[C@@H]5C[C@@](C)(C(=O)O)CC[C@]5(C)CC[C@@]4(C)[C@]3(C)CC[C@@H]12 [glycyrrhizic acid, Glycyrrhizic acid]
- solubility ([2]; in 1,3-propanediol): shows solubility
